According to publication PMC7738508, “A therapeutic combination of two small molecule toxin inhibitors provides broad preclinical efficacy against viper snakebite” (Nature Communications, 2020):
Where “and” joins values, the source holds several entries; their conditions need not be identical. Identical values can stand only once. Like-named read-outs stand apart in the source and are kept apart here.

Tests used:
[1] = system: procoagulant activity of viper venoms (citrated bovine plasma); assay: plasma clotting assay, viper venoms overall; format: biochemical; conditions: range across all venoms; lower end of dimercaprol and marimastat ranges given as < 0.15; read-out: IC50, inhibition of procoagulant venom activity
Experimental: (§1) We used a previously developed plasma clotting assay[35] to measure venom-induced coagulation. Briefly, 100 ng of each venom was incubated at 37 °C for 30 min in the presence or absence of inhibitors (150 µM to 150 nM final concentrations). The final reaction consisted of 10 µl venom ± inhibitors in PBS, 20 µl 20 mM CaCl2, and 20 µl citrated bovine plasma (VWR). The samples were pipetted in triplicate into 384-well plates, and absorbance monitored at 595 nm for 2 h at 25 °C on an Omega FLUOstar instrument. We calculated the maximum clotting velocity of each of the curves as per clot waveform analysis, by calculating the maximum of the first derivative. The means of at least three independent experimental runs for each condition were plotted at each inhibitor concentration with SEMs.

[2] = system: procoagulant activity of Echis carinatus venom (citrated bovine plasma); assay: plasma clotting assay; format: biochemical; design: key: max of first derivative of A595 clot curve (max clotting velocity); conditions: Echis carinatus venom 100 ng, independent repeats
Experimental: as §1

water solubility = format: physicochemical
[3] = system: coagulopathic activity of Daboia russelii venom (citrated bovine plasma); assay: plasma clotting assay; format: biochemical; design: key to maximum clotting velocity: max of first derivative of A595 clot curve (max clotting velocity); conditions: for maximum clotting velocity: Daboia russelii venom 100 ng, independent repeats
Experimental: as §1

[4] = system: SVMP bioactivity of the four active venoms (E. ocellatus, E. carinatus, B. asper, B. arietans); assay: in vitro kinetic fluorogenic SVMP assay, viper venoms overall; format: biochemical
Experimental: (§2) The SVMP assay measuring metalloproteinase activity and the plasma assay measuring coagulation in the presence or absence of venoms and inhibitors were performed as previously described. The SVMP assay kinetically measured cleavage of a quenched fluorogenic substrate (ES010, R&D Biosystems) by venom in the presence or absence of inhibitors.
(§3) Briefly, 10 µl of the substrate (supplied as a 6.2 mM stock) was used per 5 ml reaction buffer (150 mM NaCl, 50 mM Tris-Cl pH 7.5). Reactions consisted of 10 µl of venom ± inhibitors in PBS and 90 µl of substrate. Venoms were used at 1 µg/reaction and final inhibitor concentrations ranged from 150 µM to 150 nM. Samples were preincubated for 30 min at 37 °C and pipetted in triplicate into 384-well plates (Greiner). Thereafter, data was collected on an Omega FLUOstar (BMG Labtech) instrument at an excitation wavelength of 320 nm and emission wavelength of 405 nm at 25 °C for 1 h. The areas under the curve (AUCs) in the 0–40 min interval were calculated for each sample using MARS data analysis software v3.31 (BMG Labtech); this time point was chosen as the time where all fluorescence curves had reached a plateau (maximum fluorescence). For comparing venom-only samples, the means of at least three independent experimental runs for each condition, expressed as AUCs (n ≥ 3), were plotted at each inhibitor concentration with standard error of the mean (SEM). To determine inhibitor efficacy, the AUCs for each of the samples that consisted of venom + inhibitors were transformed and expressed as percentages of the venom-only sample (where the venom was 100%). The negative control (PBS-only) was also expressed relative to the venom, and the variation in background was presented as an interval delineated by the lowest and highest values in the PBS-only samples across concentrations and inhibitors for a specific venom.

[5] = system: procoagulant activity of Bothrops asper venom (citrated bovine plasma); assay: plasma clotting assay; format: biochemical; conditions: Bothrops asper venom 100 ng, independent repeats
Experimental: as §1

[6] = system: procoagulant activity of Echis ocellatus venom (citrated bovine plasma); assay: plasma clotting assay; format: biochemical; conditions: Echis ocellatus venom 100 ng, independent repeats
Experimental: as §1

[7] = system: Echis carinatus venom SVMP activity; assay: fluorogenic SVMP assay; format: biochemical; conditions: independent repeats
Experimental: as §2, §3

[8] = system: Bothrops asper venom SVMP activity; assay: fluorogenic SVMP assay; format: biochemical; conditions: independent repeats
Experimental: as §2, §3

[9] = system: Echis ocellatus venom SVMP activity; assay: fluorogenic SVMP assay; format: biochemical; conditions: independent repeats
Experimental: as §2, §3

[10] = system: Bitis arietans venom SVMP activity; assay: fluorogenic SVMP assay; format: biochemical; conditions: independent repeats
Experimental: as §2, §3

[11] = system: pro- and anticoagulant fractions of D. russelii venom; assay: nanofractionation with plasma coagulation assay; format: biochemical, Daboia russelii; conditions: nanofractionated D. russelii venom; inhibitor 0.0064 to 20 µM
Experimental: Fifty microlitres of venom solution (D. russelii; 1 mg/ml) was injected into a Shimadzu LC-2010 system with nanofractionation in parallel. Separation was performed on a Waters XBridge reversed-phase C18 column (250 × 4.6 mm^2 column with 3.5 μm pore-size) at 30 °C. The total flow rate of the mobile phase solution was 0.5 ml/min with eluent A (98% H2O, 2% acetonitrile [ACN], 0.1% formic acid [FA]) and eluent B (98% ACN, 2% H2O, 0.1% FA). Liquid chromatography gradients consisted of a linear increase of mobile phase B from 0 to 50% in 20 min, followed by a linear increase to 90% B in 4 min, then isocratic at 90% B for 5 min, after which the percentage of mobile phase B was decreased from 90 to 0% in 1 min, followed by 10 min at 0% B to re-equilibrate. The effluent was split in a 1:9 ratio of which the 10% fraction was sent to a Shimadzu SPD-M20A prominence diode array detector and the 90% fraction was directed to a nanofractionation collector which dispensed the fractions into transparent 384-well plates (F-bottom, rounded square well, polystyrene, without lid, clear, non-sterile; Greiner Bio One, Alphen aan den Rijn, The Netherlands) at a resolution of 6 s/well. The collector used was either a commercially available FractioMate^TM nanofractionator (SPARK-Holland & VU, Netherlands, Emmen & Amsterdam) controlled by FractioMator software v1.0 (Spark-Holland, The Netherlands, Emmen) or a modified Gilson 235P autosampler controlled by in-house written software Ariadne v1.8 (VU Amsterdam). The well plates with venom fractions were then dried overnight in a Christ Rotational Vacuum Concentrator (RVC 2 − 33 CD plus, Zalm en Kipp, Breukelen, The Netherlands) equipped with a cooling trap, and maintained at −80 °C during operation. The freeze-dried plates were then stored at −80 °C prior to bioassaying.
The final assay concentrations of the inhibitors tested in the assay were 20, 4, 0.8, 0.16, 0.032, and 0.0064 µM. The plates were then incubated for 30 min at room temperature, and during this time bovine plasma (Sterile Filtered, Biowest, Nuaille, France) was defrosted in a water bath and centrifuged for 4 min at 805 × g prior to use. […] The plate was then read immediately for absorbance kinetically for 100 min at 595 nm at 25 °C using a Varioskan Flash Multimode Reader (Thermo Fisher Scientific, Ermelo, The Netherlands). The obtained results were normalized by dividing the slope measured in each well by the median of all slope values across the plate, and the processed coagulation chromatograms were plotted to visualize very fast coagulation, medium increased coagulation and anticoagulation, as previously described.

E. ocellatus venom = assay: in vivo preincubation model of envenoming (i.v.); design: species or system CD-1 mice
Experimental: All animal experiments were conducted using protocols approved by the Animal Welfare and Ethical Review Boards of the Liverpool School of Tropical Medicine and the University of Liverpool, and performed in specific pathogen-free conditions under licensed approval (PPL #4003718 and #P5846F90) of the UK Home Office and in accordance with the Animal [Scientific Procedures] Act 1986 and institutional guidance on animal care. All experimental animals (18–20 g [4–5 weeks old], male, CD-1 mice, Charles River, UK) were housed in groups of five with environmental enrichment, water and food ad libitum and their health monitored daily during acclimatization. The experimental design was based upon 3R-refined WHO-recommended protocols[28],[41], with animals randomized and observers being blinded to the experimental condition. The median lethal doses (venom LD50) used for E. ocellatus (Nigeria), E. carinatus (India), B. asper (Costa Rica), D. russelii (Sri Lanka) and B. arietans (Nigeria) venoms were previously determined[25],[41],[44],[45].
All experimental doses were prepared to a volume of 200 µl in PBS and incubated at 37 °C for 30 min prior to their intravenous injection via the tail vein. Animals were monitored for 6 h, and euthanized via rising concentrations of CO2 upon observation of previously defined humane end points that are predicators of lethality (e.g., seizure, pulmonary distress, paralysis, hemorrhage)[28]. Deaths, time of death, and survivors were recorded; where death/time of death actually represents the implementation of euthanasia based on defined humane end points.
For all experimental animals described above, blood samples were collected via cardiac puncture immediately post-euthanasia. Plasma was separated by centrifugation at 400 × g for 10 min and stored at −80 °C. We assessed the levels of thrombin-antithrombin complexes (TAT) and soluble thrombomodulin using mouse ELISA Kits (ab137994 and ab209880, Abcam), following the manufacturer’s protocol. All available plasma samples (some were unobtainable via cardiac puncture due to extensive internal hemorrhage) were assessed if the time of death within the group varied, whereas three samples were randomly chosen if the time of death was the same (e.g., either very rapid death within 2 min, or survival until the end of the experiment [360 min or 24 h]). The resulting data was plotted as the median of duplicate measurements for each animal and is presented with standard deviations (SDs).

[12] = cited from earlier work

In the case of `CNC(=O)[C@H](Cc1ccccc1)NC(=O)[C@H](CC(C)C)[C@H](CSc1cccs1)C(=O)NO` [batimastat], the IC50 [1] is reported as under 0.15 µM, the maximum clotting velocity ([2]; inhibitor 15 µM) is reported as 0.03565 and 0.03449 and the maximum clotting velocity ([2]; inhibitor 150 µM) is reported as 0.0287 and 0.02696 and 0.02803. For the same compound, the “water solubility (words)” value (water solubility) was “water insolubility”, the “water solubility (words)” value (water solubility; listed as Batimastat) was “low water solubility” and the “effect on clotting after complete neutralization of SVMP activity” value ([3]; D. russelii venom, high doses) was “revealed clear venom anticoagulant effects”. The maximum clotting velocity ([3]; inhibitor 15 µM) was 0.01373 and 0.01942 and 0.02131 and the “neutralization of SVMP bioactivity” value ([4]; four active venoms, marimastat 150 nM to 150 µM, batimastat […] and 150 nM) was “equivalent efficacy to marimastat”.

With `OCC(S)CS` (stereo not drawn) [dimercaprol, 2,3-dimercapto-1-propanol] the IC50 [1] was 0.15 to 3.7 µM, the maximum clotting velocity ([2]; inhibitor 15 µM) was 0.039 and 0.037 and 0.04491 and the maximum clotting velocity ([2]; inhibitor 150 µM) was 0.03967 and 0.03833 and 0.05167. For the same compound, the maximum clotting velocity ([5]; inhibitor 15 µM) was 0.02441 and 0.02559 and 0.02164, the maximum clotting velocity ([5]; inhibitor 150 µM) was 0.02412 and 0.03441 and 0.03148 and the maximum clotting velocity ([6]; inhibitor 15 µM) was 0.031 and 0.039 and 0.025. For the same compound, the maximum clotting velocity ([6]; inhibitor 150 µM) was 0.038 and 0.0465 and 0.041, the “SVMP activity, percentage of the venom-only sample” value (from here on “SVMP activity, percentage”) ([7]; inhibitor 15 µM) was 11.4563% and 14.5818% and 10.6976% and the “SVMP activity, percentage” value ([7]; inhibitor 150 µM) was 11.223% and 13.9151% and 10.3819%. For the same compound, the “SVMP activity, percentage” value ([8]; inhibitor 15 µM) was 36.4776% and 36.4971% and 29.4073%, the “SVMP activity, percentage” value ([8]; inhibitor 150 µM) was 26.9201% and 36.0411% and 27.8434% and the “SVMP activity, percentage” value ([9]; inhibitor 15 µM) was 17.6103% and 18.1155% and 16.6523%. For the same compound, the “SVMP activity, percentage” value ([9]; inhibitor 150 µM) was 15.563% and 16.8718% and 16.6432%, the “SVMP activity, percentage” value ([10]; inhibitor 15 µM) was 16.3406% and 15.4164% and 15.5101% and the “SVMP activity, percentage” value ([10]; inhibitor 150 µM) was 15.3818% and 14.876% and 14.901%. The maximum clotting velocity ([3]; inhibitor 15 µM) was 0.02868 and 0.02941 and 0.02393, the maximum clotting velocity ([3]; inhibitor 150 µM) was 0.007941 and 0.0123 and the “lowest concentration generally effective / required to fully inhibit SVMP activities” value ([4]; across the active venoms) was 1.5 µM. The IC50 ([4]; range across the active venoms, read-out: IC50s, inhibition of venom SVMP activity) was 0.02 to 0.4 µM.

With `CCc1c(C(=O)C(N)=O)c2c(OCC(=O)O)cccc2n1Cc1ccccc1` [varespladib] the “inhibition of anticoagulant venom fractions” value [11] was “effectively inhibited”, the “inhibition of procoagulant venom fractions” value [11] was “some inhibitory effect against procoagulant venom toxins, but only at very high doses (20 µM)” and the “protection against venom-induced lethality” value (E. ocellatus venom; 45 µg E. ocellatus venom preincubated with 60 µg of each drug, i.v., 6 h) was “failed to prevent lethality over the full experimental time course”. The “thrombin-antithrombin (TAT) levels, range in group” value (E. ocellatus venom; plasma after euthanasia, E. ocellatus venom + 60 µg of each drug, venom-only mean 1127.3, normal mice 10.2–15.9) was 472.7 to 649.9 ng/mL, the “tolerability” value ([12]; Phase 1 and 2) was “well tolerated” and the “risk of major adverse cardiovascular events” value ([12]; Phase 2B, same daily dose, >300 patients for >6 months) was “no greater risk of major adverse cardiovascular events”. For the same compound, the “risk of myocardial infarction vs placebo” value ([12]; Phase 3, acute coronary syndrome patients, 500 mg oral daily) was “greater risk of myocardial infarction than those receiving placebo”, the “oral bioavailability” value [12] was “good oral bioavailability” and the half-life ([12]; delivered by iv infusion) was 5 h. The “water solubility (words)” value (water solubility) was “water insolubility”, the maximum clotting velocity ([3]; inhibitor 15 µM) was 0.09594 and 0.09681 and 0.08696 and the maximum clotting velocity ([3]; inhibitor 150 µM) was 0.1113 and 0.1116 and 0.1203.
